# Patent US5703097A, “5-pyrrolyl-2-pyridylmethylsulfinyl benzimidazole derivatives” (priority 1994, dated 1997)
# Columns and labels:
# [1] = system: gastric juice secretion; assay: Effect on inhibition of gastric juice secretion, in vivo, Shay method (TEST 2); design: species or system rat (SD male rats); conditions: for Volume of gastric juice / Inhibition rate, gastric juice secretion: into duodenum, 5 hours; for Volume of gastric juice: pylorus-ligated rats; for Inhibition rate, gastric juice secretion: vs normal group
# Method: (§1) The specific test methods are as follows.
# (§2) SD male rats (200±20 g) were fasted for 24 hours, except for water, and then anesthesized with ether. The abdomen of rats was incised and then the pylorus was ligated. The test compounds were suspended or dissolved in 5% CMC (carboxymethylcellulose) and injected into duodenum. After the abdomen was sutured, the rats were allowed to stand for 5 hours and then sacrificed with ether. The stomach was removed from rats and the gastric juices were collected. The gastric juice was centrifuged with 10,000 xg for 10 minutes at 4° C. to remove the precipitate. The amount of gastric juice and acidity were determined using pH 7.0 end point assay with 0.02N NaOH and then the total acid output was calculated.
# [2] = system: gastric acidity; assay: Effect on inhibition of acidity (total acid output), in vivo, Shay method (TEST 2); design: species or system rat (SD male rats); conditions: for Volume (acidity, total acid output) / Inhibition rate, acidity: into duodenum, 5 hours; for Volume (acidity, total acid output): pylorus-ligated rats; for Inhibition rate, acidity: vs normal group
# Method: as §1, §2
# [3] = molecular target: T1, H^+ /K^+ -ATPase (Oryctolagus cuniculus, UniProt P27112); assay: Inhibition of enzyme activity: in vitro inhibition of H+/K+-ATPase (TEST 1); type: biochemical, rabbit; conditions: 5 min pre-incubation at 37° C., 4 mM ATP
# T1 construct: The gastric mucous membrane was removed from a rabbit; from tissue; host or cells: rabbit gastric mucosa, microsomal fraction (77,000 g)
# Method: In this test, omeprazole [5-methoxy-2-[[(4-methoxy-3,5-dimethyl-2-pyridinyl)methyl]sulfinyl]-1H-benzimidazole] was used as the control compound.
# The gastric mucous membrane was removed from a rabbit and then centrifuged with 77,000 g using a ultra-centrifuge to separate the microsomal fraction which was used as the source of H^+ /K^+ -ATPase enzyme for this test. 60 μg of H^+ /K^+ -ATPase was pre-incubated with the sample (the compound according to the present invention) for 5 minutes at 37° C. and then 4 mM ATP as the substrate and 4 mM Mg^++, 20 mM K^+ as the cofactor were added thereto. Then, the amount of inorganic phosphorus thus produced was determined using a spectrophotometer at 660 nm and converted into the amount of protein. […]
# [4] = in words, even at a lower dose than that of the known anti-ulcer agent
# T1 sequence (P27112 2-1035 limits assumed): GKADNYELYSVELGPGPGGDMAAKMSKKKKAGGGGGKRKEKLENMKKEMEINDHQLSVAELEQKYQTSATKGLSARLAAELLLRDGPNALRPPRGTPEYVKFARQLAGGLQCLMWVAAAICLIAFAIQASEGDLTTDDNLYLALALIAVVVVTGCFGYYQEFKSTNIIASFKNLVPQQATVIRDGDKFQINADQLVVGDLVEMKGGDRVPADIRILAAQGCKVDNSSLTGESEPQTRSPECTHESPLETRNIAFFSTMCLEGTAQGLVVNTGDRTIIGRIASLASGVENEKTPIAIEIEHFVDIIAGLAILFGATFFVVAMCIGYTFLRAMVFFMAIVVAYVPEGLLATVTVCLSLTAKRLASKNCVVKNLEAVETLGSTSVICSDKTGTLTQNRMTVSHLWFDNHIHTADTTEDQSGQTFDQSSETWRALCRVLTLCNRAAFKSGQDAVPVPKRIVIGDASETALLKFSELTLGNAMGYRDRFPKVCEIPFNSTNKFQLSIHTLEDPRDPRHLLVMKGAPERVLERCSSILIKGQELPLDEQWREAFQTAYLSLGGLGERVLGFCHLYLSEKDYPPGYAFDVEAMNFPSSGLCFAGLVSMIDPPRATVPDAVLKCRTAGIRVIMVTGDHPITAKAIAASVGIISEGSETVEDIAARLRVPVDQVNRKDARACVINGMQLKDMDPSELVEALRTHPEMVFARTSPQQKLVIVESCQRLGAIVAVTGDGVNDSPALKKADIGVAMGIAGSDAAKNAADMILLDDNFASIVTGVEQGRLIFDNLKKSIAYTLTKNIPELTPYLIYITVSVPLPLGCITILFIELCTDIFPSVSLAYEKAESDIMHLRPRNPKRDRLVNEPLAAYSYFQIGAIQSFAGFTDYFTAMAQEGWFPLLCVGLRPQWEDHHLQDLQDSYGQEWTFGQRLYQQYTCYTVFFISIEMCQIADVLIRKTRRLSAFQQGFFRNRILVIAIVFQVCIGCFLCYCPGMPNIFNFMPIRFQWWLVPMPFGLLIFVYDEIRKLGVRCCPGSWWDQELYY
# T1 sequence (P18597 whole entry partner): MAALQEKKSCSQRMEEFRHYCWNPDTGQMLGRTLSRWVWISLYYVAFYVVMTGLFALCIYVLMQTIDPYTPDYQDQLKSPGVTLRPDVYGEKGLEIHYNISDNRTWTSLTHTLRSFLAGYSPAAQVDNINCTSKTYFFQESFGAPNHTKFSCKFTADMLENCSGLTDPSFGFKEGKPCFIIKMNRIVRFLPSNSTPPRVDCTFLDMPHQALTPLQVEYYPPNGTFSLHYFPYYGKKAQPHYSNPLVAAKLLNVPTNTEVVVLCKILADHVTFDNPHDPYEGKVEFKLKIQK
smiles,measurement,setting,value
COc1cc(C[S+]([O-])c2nc3cc(-n4cccc4)ccc3[nH]2)ncc1C (stereo not drawn) [Compound 5],Volume of gastric juice,[1]; 10 mg/kg,1.31 ± 0.23 ml/100 g BW
same,"Inhibition rate, gastric juice secretion",[1]; 10 mg/kg,52.81%
same,Volume of gastric juice,[1]; 30 mg/kg,0.99 ± 0.16 ml/100 g BW
same,"Inhibition rate, gastric juice secretion",[1]; 30 mg/kg,64.30%
same,effect for inhibition of gastric acid secretion,[1]; in words,good effects
same,inhibition of gastric juice secretion,[1]; [4],strong inhibition of gastric juice secretion
same,"Volume (acidity, total acid output)",[2]; 10 mg/kg,16.89 ± 4.06 μ Eq/hr
same,"Inhibition rate, acidity",[2]; 10 mg/kg,70.60%
same,"Volume (acidity, total acid output)",[2]; 30 mg/kg,5.59 ± 2.22 μ Eq/hr
same,"Inhibition rate, acidity",[2]; 30 mg/kg,90.27%
same,effect for lowering acidity,[2]; in words,good effects
same,acidity lowering effect,[2]; [4],high acidity lowering effect
same,IC50,[3],32 µM
COc1ccnc(CS(=O)(=O)c2nc3cc(-n4cccc4)ccc3[nH]2)c1C [Compound 3],IC50,[3],> 400 µM
"Cc1c(OCC(F)(F)F)ccnc1C[S+]([O-])c1nc2cc(-n3cccc3)ccc2[nH]1 (stereo not drawn) [Compound 13, 2-[[(4-(2,2,2-trifluoroethoxy)-3-methyl)-2-pyridinyl]methylsulfinyl]-5-(1H-pyrrol-1-yl)-1H-benzimidazole]",IC50,[3],100 µM
"Cc1c(OCC(F)(F)C(F)(F)F)ccnc1C[S+]([O-])c1nc2cc(-n3cccc3)ccc2[nH]1 (stereo not drawn) [Compound 14, 2-[[(4-(2,2,3,3,3-pentafluoropropoxy)-3-methyl)-2-pyridinyl]methylsulfinyl]-5-(1H-pyrrol-1-yl)-1H-benzimidazole]",IC50,[3],> 400 µM
Cc1ccnc(C[S+]([O-])c2nc3cc(-n4cccc4)ccc3[nH]2)c1 (stereo not drawn) [Compound 7],IC50,[3],> 400 µM
COc1cc(C[S+]([O-])c2nc3cc(-n4cccc4)ccc3[nH]2)ncc1C (stereo not drawn) [Compound 18],Volume of gastric juice,[1]; 3 mg/kg,2.24 ± 0.12 ml/100 g BW
same,"Inhibition rate, gastric juice secretion",[1]; 3 mg/kg,27.35%
same,Volume of gastric juice,[1]; 10 mg/kg,2.14 ± 0.30 ml/100 g BW
same,"Inhibition rate, gastric juice secretion",[1]; 10 mg/kg,30.90%
same,Volume of gastric juice,[1]; 30 mg/kg,1.53 ± 0.19 ml/100 g BW
same,"Inhibition rate, gastric juice secretion",[1]; 30 mg/kg,50.42%
same,"Volume (acidity, total acid output)",[2]; 3 mg/kg,28.37 ± 3.44 μ Eq/hr
same,"Inhibition rate, acidity",[2]; 3 mg/kg,53.39%
same,"Volume (acidity, total acid output)",[2]; 10 mg/kg,23.40 ± 3.94 μ Eq/hr
same,"Inhibition rate, acidity",[2]; 10 mg/kg,61.55%
same,"Volume (acidity, total acid output)",[2]; 30 mg/kg,15.72 ± 3.60 μ Eq/hr
same,"Inhibition rate, acidity",[2]; 30 mg/kg,74.18%
same,IC50,[3],38 µM
"COc1ccc2[nH]c([S+]([O-])Cc3ncc(C)c(OC)c3C)nc2c1 (stereo not drawn) [Omeprazole, 5-methoxy-2-[[(4-methoxy-3,5-dimethyl-2-pyridinyl)methyl]sulfinyl]-1H-benzimidazole, reference compound]",Volume of gastric juice,[1]; 10 mg/kg,1.68 ± 0.30 ml/100 g BW
same,"Inhibition rate, gastric juice secretion",[1]; 10 mg/kg,54.49%
same,"Volume (acidity, total acid output)",[2]; 10 mg/kg,12.46 ± 1.85 μ Eq/hr
same,"Inhibition rate, acidity",[2]; 10 mg/kg,84.00%
same,IC50,[3],~160 µM
CCc1cnc(C[S+]([O-])c2nc3cc(-n4cccc4)ccc3[nH]2)cc1OC (stereo not drawn) [Compound 10],IC50,[3],8.8 µM
[O-][S+](Cc1ccccn1)c1nc2cc(-n3cccc3)ccc2[nH]1 (stereo not drawn) [Compound 11],IC50,[3],> 400 µM
COc1c(C)cnc(C[S+]([O-])c2nc3cc(-n4cccc4)ccc3[nH]2)c1C (stereo not drawn) [Compound 4],IC50,[3],210 µM
"COc1ccnc(CSc2nc3cc(-n4cccc4)ccc3[nH]2)c1C [Compound 1, 2-[[(4-methoxy-3-methyl)-2-pyridinyl]methylthio]-5-(1H-pyrrol-1-yl)-1H-benzimidazole]",IC50,[3],> 400 µM
Cc1cnc(C[S+]([O-])c2nc3cc(-n4cccc4)ccc3[nH]2)cc1C (stereo not drawn) [Compound 6],IC50,[3],~400 µM
Cc1cnc(C[S+]([O-])c2nc3cc(-n4cccc4)ccc3[nH]2)c(C)c1 (stereo not drawn) [Compound 12],IC50,[3],85 µM
"COc1ccnc(C[S+]([O-])c2nc3cc(-n4c(C)ccc4C)ccc3[nH]2)c1C (stereo not drawn) [Compound 15, 2-[[(4-methoxy-3-methyl)-2-pyridinyl]methylsulfinyl]-5-(1H-2,5-dimethylpyrrol-1-yl)-1H-benzimidazole]",IC50,[3],33 µM
